Laboratory results published in US20240360134A1, “PYRAZOLOPYRIMIDINES AND THEIR USES AS PDGFR INHIBITORS” (priority 2021, published 2024).
pIC50: −log10 of the molar value. Where two headings read alike, the source gives them in different places.

Columns and labels:
PDGFRβ = PDGFRβ (Rattus norvegicus (Rat), UniProt Q05030); assay: PDGFRβ Cellular Assay (PDGFRb P-Y751 HTRF, PDGF-BB stimulated A10 cells); assay type: cell-based
Experimental: Cell Culture and Preparation: Cells are cultured according to ATCC procedure (5) with the addition of the antibiotic penicillin-streptomycin. If working from frozen, cells should be thawed according to ATCC procedure. Depending on the cell density of frozen vial, cells will need time to recover from thaw. An 80% confluent T75 flask should be enough for one 384 well plate.
Stock Solutions: Rat PDGFBB. A 100 ug/mL stock is prepared by reconstituting 50 ug in 500 μL of 4 mM HCl and 0.1% BSA. It can be stored for a month at 4° C., or aliquoted out and frozen in the −20/−80° C. to avoid multiple free-thaw cycles.
1× Cisbio cell lysis buffer. The cell lysis buffer is diluted 4-fold with molecular grade water. The blocking agent is then diluted 25-fold in the diluted lysis buffer.
Antibody solutions. Equal amounts d2 and cryptate antibody are diluted 20-fold in detection buffer.
Rat PDGFBB. A working stock of 100 ng/mL is created from the stock solution in 10% FBS culture media.
Step 1: Plating Cells: Media from the A10 cell flask is aspirated. The cells are rinsed with PBS and then trypsinized to disperse the cell layer. The cells are then pelleted are resuspended to 1.25e5 cells/mL. […] Plates are covered and placed in the incubator (37° C. 5% CO2) overnight to allow cells to adhere.
Step 2: Compound Dispense: Approximately 18 hours after plating, dispense 40 nL compound onto cells using Echo. […] The plate is returned to the incubator for 3 hours.
After 10 minutes the media is removed by flicking the plate.
Step 4: Cell lysis and antibody addition: 20 uL lysis buffer per well is added to the plate via Tempest. 5 uL antibody solution is added per well via the Tempest. The plate is placed on the shaker at 230 rpm for 1 hour at room temperature.
Step 5: Detection: The plate is read using the HTRF module on the BMG Pherastar. Data is analyzed using Genedata Screener.
IC50 values are determined from a 4-parameter fit, using the following equation: Y=Bottom+(Top−Bottom)/(1+10((Log IC50−X)*Hill slope)), where X=log10 of the compound concentration; top can be defined by PC; bottom defined by NC.

VEGFR2, unphosphorylated = VEGFR2, unphosphorylated (Homo sapiens (Human), UniProt P35968); assay: VEGFR ADP GLO assay; assay type: biochemical; conditions: 5 nM VEGFR2, 1.2 mM ATP, 1 mg/mL Srctide, 180 min
Sequence of VEGFR2, unphosphorylated (P35968 whole entry, looked up): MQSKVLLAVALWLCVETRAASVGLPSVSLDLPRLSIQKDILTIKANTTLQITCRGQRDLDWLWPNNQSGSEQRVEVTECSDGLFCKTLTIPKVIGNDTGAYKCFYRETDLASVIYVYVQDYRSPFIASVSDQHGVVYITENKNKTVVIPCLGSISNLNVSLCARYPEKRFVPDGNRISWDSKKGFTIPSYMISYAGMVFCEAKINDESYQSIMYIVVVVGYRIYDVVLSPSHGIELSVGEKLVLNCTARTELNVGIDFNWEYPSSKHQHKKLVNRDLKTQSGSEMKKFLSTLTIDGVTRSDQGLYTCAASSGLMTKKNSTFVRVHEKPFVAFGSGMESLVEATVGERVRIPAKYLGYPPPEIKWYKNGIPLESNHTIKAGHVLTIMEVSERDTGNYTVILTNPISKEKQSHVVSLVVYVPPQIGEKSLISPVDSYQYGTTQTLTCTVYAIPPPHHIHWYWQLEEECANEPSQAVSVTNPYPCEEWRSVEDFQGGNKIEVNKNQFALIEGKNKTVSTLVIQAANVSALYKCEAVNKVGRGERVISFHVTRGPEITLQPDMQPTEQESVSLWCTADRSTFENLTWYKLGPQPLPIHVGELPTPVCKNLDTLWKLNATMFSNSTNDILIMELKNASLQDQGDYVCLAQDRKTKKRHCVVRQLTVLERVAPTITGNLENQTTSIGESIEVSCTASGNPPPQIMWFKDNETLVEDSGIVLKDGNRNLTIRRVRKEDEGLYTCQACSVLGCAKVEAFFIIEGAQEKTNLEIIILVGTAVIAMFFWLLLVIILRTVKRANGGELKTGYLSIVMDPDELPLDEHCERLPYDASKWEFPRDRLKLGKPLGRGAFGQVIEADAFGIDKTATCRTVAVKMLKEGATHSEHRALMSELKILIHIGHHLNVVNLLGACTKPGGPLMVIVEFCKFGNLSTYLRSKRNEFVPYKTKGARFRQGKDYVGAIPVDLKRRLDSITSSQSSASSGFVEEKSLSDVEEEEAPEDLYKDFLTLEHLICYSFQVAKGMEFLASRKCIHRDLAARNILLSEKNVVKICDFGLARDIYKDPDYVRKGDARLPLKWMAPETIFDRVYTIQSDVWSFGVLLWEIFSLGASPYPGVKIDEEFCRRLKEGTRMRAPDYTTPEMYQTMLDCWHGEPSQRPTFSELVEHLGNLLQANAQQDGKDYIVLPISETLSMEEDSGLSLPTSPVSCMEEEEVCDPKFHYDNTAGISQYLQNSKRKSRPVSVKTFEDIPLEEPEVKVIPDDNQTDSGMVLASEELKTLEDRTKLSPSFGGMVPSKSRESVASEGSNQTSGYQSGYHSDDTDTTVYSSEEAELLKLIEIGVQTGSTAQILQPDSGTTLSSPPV
Experimental: Assay buffer stock contains 50 mM HEPES pH7.5, 10 mM MgCl2, 0.01% Brij-35, and 1 mM EGTA.
Unphosphorylated VEGFR2. 52.6 μM in 50 mM Tris-HCl, pH 8.0, 50 mM NaCl, 5% Glycerol, 0.5 mM TCEP. Store at −80° C. in aliquots.
10 mg/mL srctide solution, prepared in Assay buffer (Assay buffer stock with 2 mM DTT, 0.1% Pluronic F-127, and 0.1 mg/mL ovalbumin). Sonicate 10 mg/ml Srctide solution for 10 minutes and then vacuum filter.
Assay buffer. Add DTT to 2 mM, Pluronic F-127 to 0.1% and ovalbumin to 0.1 mg/mL to Assay buffer stock.
2× kinase solution. Make a working solution of 10 nM unphosphorylated VEGFR2 in Assay buffer. Vacuum filter 2× kinase solution prior to running assay. Keep on ice until use.
2× substrate/ATP solution. Make a working solution of 2 mg/mL srctide and 2.4 mM ATP in Assay buffer. Keep on ice until use.
Step 1. Dispensing inhibitors/controls: Using Echo, dispense 10 nL/well compound serial dilutions in DMSO to columns 1-22 (in 384-well plates) or columns 1-44 (in 1536-well plates). Dilution series=11 pt, 3-fold dilutions. The top compound concentration in the source plate is 4 mM. The top compound concentration in the assay plate is 10 uM. Using Echo, dispense 10 nl/well DMSO to column 23 (in 384-well plates) or columns 45-47 (in 1536-well plates). These wells will serve as negative control wells Using Echo, dispense 10 nl/well 400 uM TAK-593 in DMSO to column 24 (in 384-well plates) or column 48 (in 1536-well plates). The final concentration of TAK-593 in the assay should be 1 uM. These wells will serve as positive control wells.
Step 2. Pre-incubation of inhibitors with kinase: Add 2 μL/well 2× kinase solution. Centrifuge at 1000 rpm for 1 min. Incubate at room temperature for 30 min.
Step 3. Kinase cascade reaction: Add 2 μL/well 2× substrate/ATP solution to initiate kinase reactions. Centrifuge at 1000 rpm for 1 min. Incubate at room temperature for 180 min.
Final concentrations of components in the assay:
Step 4. Quench: Add 2 uL/well ADP Glo Reagent+0.05% CHAPS. Centrifuge at 1000 rpm for 1 min; Incubate at room temperature for one hour.
Step 5. Detection: Add 2 uL/well Kinase Detection Reagent+0.05% CHAPS. Centrifuge at 1000 rpm for 1 min; Incubate at room temperature for 1 hour; Read Luminescence on a plate reader.
% Inhibition: % Inhibition=(NC−sample)/(NC−PC)*100 where NC is the mean of negative control (reactions without inhibitor), and PC is the mean of positive control (1 μM TAK-593).
IC50 values are determined from a 4-parameter fit, using the following equation: Y=Bottom+(Top−Bottom)/(1+10^(Log IC50-X)*Hill Slope), where X=log10 of the compound concentration; top can be defined by PC; bottom defined by NC.

[1] = A10 cells, 3 hours compound, 15 ng/mL PDGFbb for 10 minutes, read-out: PDGFR Cellular IC50

Sequence of PDGFRβ (Q05030 whole entry, looked up): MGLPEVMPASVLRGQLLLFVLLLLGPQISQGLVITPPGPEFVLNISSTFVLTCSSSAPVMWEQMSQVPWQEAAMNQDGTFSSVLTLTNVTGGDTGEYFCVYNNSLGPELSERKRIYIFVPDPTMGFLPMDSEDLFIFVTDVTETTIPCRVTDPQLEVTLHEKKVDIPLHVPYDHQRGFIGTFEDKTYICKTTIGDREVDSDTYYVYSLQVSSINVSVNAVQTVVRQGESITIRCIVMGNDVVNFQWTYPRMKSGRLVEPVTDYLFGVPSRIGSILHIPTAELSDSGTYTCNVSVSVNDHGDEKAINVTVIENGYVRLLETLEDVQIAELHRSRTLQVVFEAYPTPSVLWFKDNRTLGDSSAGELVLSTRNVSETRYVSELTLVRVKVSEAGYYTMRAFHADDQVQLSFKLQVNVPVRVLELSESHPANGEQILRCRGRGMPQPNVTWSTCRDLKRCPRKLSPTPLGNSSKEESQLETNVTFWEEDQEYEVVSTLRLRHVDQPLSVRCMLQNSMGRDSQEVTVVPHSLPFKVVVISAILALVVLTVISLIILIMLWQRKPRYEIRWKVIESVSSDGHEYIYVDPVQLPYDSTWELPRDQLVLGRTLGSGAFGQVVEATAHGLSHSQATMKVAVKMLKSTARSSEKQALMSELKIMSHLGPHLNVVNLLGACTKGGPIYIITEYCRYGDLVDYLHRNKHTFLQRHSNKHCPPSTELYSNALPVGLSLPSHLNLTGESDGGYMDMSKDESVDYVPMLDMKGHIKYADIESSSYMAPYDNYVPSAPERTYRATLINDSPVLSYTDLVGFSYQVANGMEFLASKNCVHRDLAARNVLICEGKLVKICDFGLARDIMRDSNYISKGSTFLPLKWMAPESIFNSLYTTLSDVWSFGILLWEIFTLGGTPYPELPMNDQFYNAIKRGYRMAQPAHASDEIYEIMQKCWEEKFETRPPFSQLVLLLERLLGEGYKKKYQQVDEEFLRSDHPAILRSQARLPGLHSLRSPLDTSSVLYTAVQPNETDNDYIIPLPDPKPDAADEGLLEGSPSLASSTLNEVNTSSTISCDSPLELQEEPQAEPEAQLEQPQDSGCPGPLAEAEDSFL

Row | Structure (SMILES) | pIC50 (PDGFRβ; [1]) | pIC50 (VEGFR2, unphosphorylated) | pIC50 (PDGFRβ)
1 | Cc1ncc(NC(=O)CN2C[C@H](C)O[C@@H](C)C2)cc1Nc1nn(C)c2nc(Nc3cnn(C)c3)ncc12 (relative stereo) [Example 73, 2-(trans-2,6-dimethylmorpholino)-N-(6-methyl-5-((1-methyl-6-((1-methyl-1H-pyrazol-4-yl)amino)-1H-pyrazolo[3,4-d]pyrimidin-3-yl)amino)pyridin-3-yl)acetamide] | 8.28 |  | 
2 | Cc1ncc(C(=O)NCCN2CC[C@H](C)C2)cc1Nc1nn(C)c2nc(Nc3cncnc3)ncc12 [Example 12, (S)-6-methyl-5-((1-methyl-6-(pyrimidin-5-ylamino)-1H-pyrazolo[3,4-d]pyrimidin-3-yl)amino)-N-(2-(3-methylpyrrolidin-1-yl)ethyl)nicotinamide] |  | < 5.12 | 6.96
3 | Cc1ncc(C(=O)NCCN2CCCC23COC3)cc1Nc1nn(C)c2nc(Nc3cnn(C)c3)ncc12 [Example 18, N-(2-(2-oxa-5-azaspiro[3.4]octan-5-yl)ethyl)-6-methyl-5-((1-methyl-6-((1-methyl-1H-pyrazol-4-yl)amino)-1H-pyrazolo[3,4-d]pyrimidin-3-yl)amino)nicotinamide] |  | < 5.12 | 7.40
4 | Cc1ncc(C(=O)NCCN2CCC3(CCO3)CC2)cc1Nc1nn(C)c2nc(Nc3cnn(C)c3)ncc12 [Example 19, N-(2-(1-oxa-7-azaspiro[3.5]nonan-7-yl)ethyl)-6-methyl-5-((1-methyl-6-((1-methyl-1H-pyrazol-4-yl)amino)-1H-pyrazolo[3,4-d]pyrimidin-3-yl)amino)nicotinamide] |  | < 5.12 | 7.25
5 | Cc1ncc(C(=O)NCCN2CCC3(CC2)COC3)cc1Nc1nn(C)c2nc(Nc3cnn(C)c3)ncc12 [Example 20, N-(2-(2-oxa-7-azaspiro[3.5]nonan-7-yl)ethyl)-6-methyl-5-((1-methyl-6-((1-methyl-1H-pyrazol-4-yl)amino)-1H-pyrazolo[3,4-d]pyrimidin-3-yl)amino)nicotinamide] |  | < 5.12 | 6.77
6 | Cc1ncc(C(=O)NCCN2CCCC2(C)C)cc1Nc1nn(C)c2nc(Nc3ccn(C)n3)ncc12 [Example 34, N-(2-(2,2-dimethylpyrrolidin-1-yl)ethyl)-6-methyl-5-((1-methyl-6-((1-methyl-1H-pyrazol-3-yl)amino)-1H-pyrazolo[3,4-d]pyrimidin-3-yl)amino)nicotinamide] |  | < 5.12 | 
7 | Cc1ncc(C(=O)NCCN2CCCC2(C)C)cc1Nc1nn(C)c2nc(Nc3cnn(C)c3)ncc12 [Example 39, N-(2-(2,2-dimethylpyrrolidin-1-yl)ethyl)-6-methyl-5-((1-methyl-6-((1-methyl-1H-pyrazol-4-yl)amino)-1H-pyrazolo[3,4-d]pyrimidin-3-yl)amino)nicotinamide] |  | < 5.12 | 
8 | COC(=O)Cc1cccc(Nc2ncc3c(Nc4cc(C(=O)NCCN5CCCC5(C)C)cnc4C)nn(C)c3n2)c1 [Example 43] | 7.62 |  | 
9 | COC(=O)C(C)(C)c1cccc(Nc2ncc3c(Nc4cc(C(=O)NCCN5CCCC5(C)C)cnc4C)nn(C)c3n2)c1 [Example 46] | 7.73 |  | 
10 | Cc1ncc(NC(=O)CN2CCC[C@@H]2C)cc1Nc1nn(C)c2nc(Nc3cnn(C)c3)ncc12 [Example 71, (S)—N-(6-methyl-5-((1-methyl-6-((1-methyl-1H-pyrazol-4-yl)amino)-1H-pyrazolo[3,4-d]pyrimidin-3-yl)amino)pyridin-3-yl)-2-(2-methylpyrrolidin-1-yl)acetamide] | 8.77 |  | 
11 | Cc1ncc(NC(=O)CN2CCC(F)(F)CC2)cc1Nc1nn(C)c2nc(Nc3cnn(C)c3)ncc12 [Example 72, 2-(4,4-difluoropiperidin-1-yl)-N-(6-methyl-5-((1-methyl-6-((1-methyl-1H-pyrazol-4-yl)amino)-1H-pyrazolo[3,4-d]pyrimidin-3-yl)amino)pyridin-3-yl)acetamide] | 8.46 |  | 
12 | Cc1ncc(NC(=O)CN2CCC3(CC3)C2)cc1Nc1nn(C)c2nc(Nc3cnn(C)c3)ncc12 [Example 74, N-(6-methyl-5-((1-methyl-6-((1-methyl-1H-pyrazol-4-yl)amino)-1H-pyrazolo[3,4-d]pyrimidin-3-yl)amino)pyridin-3-yl)-2-(5-azaspiro[2.4]heptan-5-yl)acetamide] | 8.77 |  | 
13 | Cc1ncc(NC(=O)CN2CCC(F)(F)C2)cc1Nc1nn(C)c2nc(Nc3cnn(C)c3)ncc12 [Example 75, 2-(3,3-difluoropyrrolidin-1-yl)-N-(6-methyl-5-((1-methyl-6-((1-methyl-1H-pyrazol-4-yl)amino)-1H-pyrazolo[3,4-d]pyrimidin-3-yl)amino)pyridin-3-yl)acetamide] | 8.31 |  | 
14 | Cc1ncc(NC(=O)CN2CC(F)(F)C2)cc1Nc1nn(C)c2nc(Nc3cnn(C)c3)ncc12 [Example 76, 2-(3,3-difluoroazetidin-1-yl)-N-(6-methyl-5-((1-methyl-6-((1-methyl-1H-pyrazol-4-yl)amino)-1H-pyrazolo[3,4-d]pyrimidin-3-yl)amino)pyridin-3-yl)acetamide] | 7.88 |  | 
15 | Cc1ncc(NC(=O)CN2C[C@@H](C)O[C@@H](C)C2)cc1Nc1nn(C)c2nc(Nc3cnn(C)c3)ncc12 [Example 78, 2-(cis-2,6-dimethylmorpholino)-N-(6-methyl-5-((1-methyl-6-((1-methyl-1H-pyrazol-4-yl)amino)-1H-pyrazolo[3,4-d]pyrimidin-3-yl)amino)pyridin-3-yl)acetamide] | 8.08 |  | 
16 | Cc1ncc(NC(=O)CN(CCO)C2CCCC2)cc1Nc1nn(C)c2nc(Nc3cnn(C)c3)ncc12 [Example 79, 2-(cyclopentyl(2-hydroxyethyl)amino)-N-(6-methyl-5-((1-methyl-6-((1-methyl-1H-pyrazol-4-yl)amino)-1H-pyrazolo[3,4-d]pyrimidin-3-yl)amino)pyridin-3-yl)acetamide] | 7.63 |  | 
17 | Cc1ncc(NC(=O)CN(CCCO)C2CCCC2)cc1Nc1nn(C)c2nc(Nc3cnn(C)c3)ncc12 [Example 80, 2-(cyclopentyl(3-hydroxypropyl)amino)-N-(6-methyl-5-((1-methyl-6-((1-methyl-1H-pyrazol-4-yl)amino)-1H-pyrazolo[3,4-d]pyrimidin-3-yl)amino)pyridin-3-yl)acetamide] | 7.78 |  | 
18 | COCCn1cc(Nc2ncc3c(Nc4cc(NC(=O)CN5CCC56CCC6)cnc4C)nn(C)c3n2)cn1 [Example 123, N-(5-((6-((1-(2-methoxyethyl)-1H-pyrazol-4-yl)amino)-1-methyl-1H-pyrazolo[3,4-d]pyrimidin-3-yl)amino)-6-methylpyridin-3-yl)-2-(1-azaspiro[3.3]heptan-1-yl)acetamide] | 8.33 |  | 
